Test results published in patent publication US9701690B2, “Myrtocomuloacetalone 1 as an anti-inflammatory agent” (priority 2014, dated 2017).
In brackets after ≈: the same amount, converted by molar mass. Where two headings read alike, the source gives them in different places. Blank lines part the entries; values can stand above or below the molecule they belong to.

Assays:
superoxide (O−2) = experiment: Oxidative burst, superoxide production; assay type: cell-based; details: for Oxidative burst % Inhibition O−2: 25 μg/Ml
ROS (HOCl) = experiment: Oxidative burst, ROS (HOCl) production (zymosan induced); assay type: cell-based
H2O2 = experiment: Oxidative burst, hydrogen peroxide production; assay type: cell-based
T-cells = experiment: T-cell proliferation; assay type: cell-based
Source text: T Lymphocytes, the major key detector cells of the adaptive immune responses, differ entirely from those of innate immunity that includes free a radical generation system. However, the effector pathways overlap to a great extent. Therefore, they can play a leading role in the development of autoimmune disease related to oxidative stress.

[1] = system: Nitric Oxide release by J774.2 macrophages; experiment: LPS-induced inflammatory Nitric Oxide release by macrophages (griess reagent); assay type: cell-based, mouse; details: J774.2, LPS, 48 hours
Description: FIG. 2 depicts the effect of myrtocomuloacetalone 1 on inflammatory Nitric Oxide release by macrophages in response to LPS, macrophages. J774.2 cells were incubated in the presence or absence of compound for 48 hours and supernatant was detected for the presence of nitrite by griess reagent. The result was compared with known inhibitor of Nitric Oxide; LNMA (NG Monomethyl L arginine).
During inflammation, the inducible form of nitric oxide synthase gets activated and causes the robust generation of Nitric Oxide that causes excessive vasodilation which results in hypotension and septic shock. In contrast, Nitric Oxide combined with superoxide (ROS generated during phagocytosis) leads to ONOO generation and eventually reduces the bioavailability of basal Nitric Oxide and therefore normal function of neurotransition will be halted. This effect mainly leads to vasoconstriction, hypertension and atherosclerosis. Current studies reveal that the compound is an inhibitor to the inflammatory Nitric Oxide released by the activated macrophages in cell culture supernatant. It is found to be a highly significant inhibitor Nitric Oxide with an IC50 value of <1 μg/mL (see FIG. 2).

[2] = system: basal Nitric Oxide, U138MG cells; experiment: Basal level of Nitric Oxide in neuronal cells (griess reagent); assay type: cell-based; details: 48 hours
Description: FIG. 1 depicts the effect of myrtocomuloacetalone 1 on basal level of Nitric Oxide neuronal cells. U138MG cells were incubated in presence and absence of compound for 48 hours and supernatant was analyzed for the level of the presence of nitrite by griess reagent.
Under normal physiological conditions, Nitric Oxide is necessary for normal vascular function because of its effect as a neurotransmitter. This kind of Nitric Oxide is called a basal level of Nitric Oxide, which is released by neuronal and endothelial synthases (Hattori, Kasai, and Gross 2004). The test compound […] in the basal level of Nitric Oxide released by the neuronal cell (FIG. 1).

[3] = system: NF kappa B p65 in J774 cells; experiment: LPS induced nuclear translocation of p65 subunit of NF kappa B; assay type: cell-based, mouse
Description: FIG. 3 depicts the LPS induced nuclear translocation of p65 subunit of NF kappa B in J774 cells. Effect of myrtocomuloacetalone 1 at concentration 25 μg/mL. Arrows show no transcription factor inside nucleus at 25 μg/mL, whereas 5, 0.5 μg/mL has no effect on nuclear factor translocation as compared to positive control. The cells were examined at 20× magnification under TRITC and DAPI channel using a Nikon TE-2000 epifluorescence microscope. Merging was done using Adobe Photoshop.

p38 = experiment: LPS activated transcription factor p38; assay type: cell-based
[4] = system: intracellular ROS in J774.2 cells; experiment: Intracellular oxidative stress, DCFH dye, fluorescent microscopy; assay type: cell-based, mouse; details: PMA stimulant
Source text: FIG. 4 depicts the intracellular oxidative stress examined by fluorescent microscopy. Mouse macrophage J774.2 cells, treated with phorbol myristate acetate (PMA) alone: positive control or in combination with compound. The cells were examined at 20× magnification under a green channel. Bright field images showing the total number of cells present in the same field were obtained under phase contrast at 20× magnification. Each image is representative of 3 individual experiments.
In order to validate the above mentioned results, we also investigated the effect of compound on intracellular ROS levels by using 2′,7′-dichlorfluorescein (DCFH) dye, which mainly measures the H2O2 released into the intracellular environment. We employed PMA as a stimulant since PMA is known to activate the NADPH oxidase via protein kinase C pathway.

MDBK kidney cells = experiment: MTT assay, MDBK kidney cell proliferation; assay type: cell-based; details: 48 hours
Description: FIG. 5 depicts the effect of myrtocomuloacetalone 1 on MDBK kidney cell proliferation by MTT assay. MDBK Kidney cell line was incubated in the presence of three concentrations 25, 5 and 0.5 μg/mL of test compounds or without addition of compounds (− test control) and in presence of cytotoxic drug cyclohexamide (+ control).
(§1) The effect of myrtocomuloacetalone 1 on cell viability was determined in MDBK, CC1, J774 and 3T3 Fibrobast cells and the IC50 for each line was calculated.

CC1 liver cells = experiment: MTT assay, CC1 liver cell proliferation; assay type: cell-based, Wistar rat; details: 48 hours
Description: FIG. 6 depicts the effect of myrtocomuloacetalone 1 on Wistar rat CC1 liver cell proliferation by MTT assay. CC1 liver cellline was incubated in the presence of three concentrations 25, 5 and 0.5 μg/mL of test compounds or without addition of compounds (−ve control) and in the presence of cytotoxic drug cyclohexamide (+ control).
as §1

[5] = system: 3T3 mouse fibroblast cells; experiment: MTT assay, 3T3 fibroblast cell proliferation; assay type: cell-based; details: 48 hours
Description: FIG. 7 depicts the effect of myrtocomuloacetalone 1 on 3T3 mouse fibrobast cell proliferation by MTT assay. Fibrobast cell line was incubated in the presence of three concentrations (25, 5 and 0.5 μg/mL) of test compounds or without addition of compounds (−ye control) and in presence of cytotoxic drug cyclohexamide (+ control).
as §1

J774.2 macrophages = experiment: MTT assay, J774.2 macrophage cell proliferation; assay type: cell-based, mouse; details: 48 hours
Description: FIG. 8 depicts the effect of myrtocomuloacetalone 1 on J774.2 mouse macrophage cell proliferation by MIT assay. Macrophage cell line was incubated in the presence of three concentrations (25, 5 and 0.5 μg/mL) of test compounds or without addition of compounds (−ve control).
as §1

Molecule: c1ccc([I+]c2ccccc2)cc1 [Diphenyliodonium, reference compound]
Oxidative burst % Inhibition O−2 (superoxide (O−2)): 95%

ROS (HOCl) (IC50) (ROS (HOCl); oxidative burst): >100 mg/L | Inhibition of inflammatory Nitric Oxide released by activated macrophages, IC50 [1]: < 1 mg/L
Molecule: myrtocomuloacetalone 1 [Myrtocomuloacetalone (1)]
Effect on HOCl production (ROS (HOCl); oxidative burst): no effect | Zymosan induced ROS production of mainly HOCl (ROS (HOCl); zymosan induced): not | Oxidative burst % Inhibition O−2 (superoxide (O−2)): 42.5% | Effect on superoxide production (superoxide (O−2); oxidative burst): profound effect | Oxidative burst % Inhibition H2O2 (H2O2; 25 μg/Ml): 53% | Effect on hydrogen peroxide production (H2O2; oxidative burst): profound effect | T-Cell proliferation (IC50) (T-cells): <0.5 mg/L | T-Cell proliferation (IC50) (T-cells; listed as myrtocomuloacetalone 1): < 0.5 mg/L | Effect on basal level of Nitric Oxide released by neuronal cell [2]: does change | Nuclear translocation of NF κB ([3]; 25 μg/mL): completely inhibits | Nuclear translocation of NF κB ([3]; 5, 0.5 μg/mL): no effect | Effect on transcription factor p38 activated by LPS (p38): remain unaffected | PMA induced intracellular ROS generation [4]: inhibitory effects | Cell viability IC50, MDBK kidney cells (MDBK kidney cells): 4.5 ± 1.1 mg/L | Cell viability IC50, CC1 liver cells (CC1 liver cells): 4.6 ± 0.7 mg/L | Cell viability IC50, 3T3 mouse fibroblasts [5]: 6.53 ± 1.2 mg/L | Cell viability IC50, J774.2 macrophages (J774.2 macrophages): 5 ± 0.8 mg/L

Molecule: C[C@@H]1C[C@@H]([C@H](O)CC2CC(=O)NC(=O)C2)C(=O)[C@@H](C)C1 [cycoxehamide, reference compound]
Cell viability IC50, MDBK kidney cells (MDBK kidney cells): 1.2 ± 0.4 mg/L | Cell viability IC50, CC1 liver cells (CC1 liver cells): 0.02 ± 0.001 mg/L | Cell viability IC50, 3T3 mouse fibroblasts [5]: 0.13 mg/L

Molecule: C[C@]12C=CC(=O)C=C1CC[C@@H]1[C@@H]2[C@@H](O)C[C@@]2(C)[C@H]1CC[C@]2(O)C(=O)CO [Prednisolone, reference compound]
IC50 (T-cells; T-cell): < 0.625 mg/L

IC50 (ROS (HOCl); oxidative burst): 11.7 ± 1.8 mg/L (≈ 56.7 µM)
Molecule: CC(C)Cc1ccc(C(C)C(=O)O)cc1 (stereo not shown) [Ibuprofen, reference compound]
